Earlier results in patent publication US20260014105A1, “POWDER MIXTURE COMPRISING REPARIXIN” (Dompe' Farmaceutici SPA, priority 2022, published 2026).

System: hospitalized patients with severe COVID-19 pneumonia

## CC(C)Cc1ccc([C@@H](C)C(=O)NS(C)(=O)=O)cc1 [reparixin, R-(−)-2-(4-isobutylphenyl)propionyl methansulfonamide]
  Clinical outcomes compared with the standard of care: improved clinical outcomes
